Assay results as given in patent US10259810B2, “N-sulfonylated pyrazolo[3,4-b]pyridin-6-carboxamides and method of use” (AbbVie S.à.r.l., priority 2015, dated 2019).

Assays:
ΔF508-CFTR [1] = molecular target: T1, ΔF508-CFTR (Homo sapiens, UniProt P13569, DEL508-508); assay: CFTR cell surface levels using HRP-tagged ΔF508-CFTR expressing CFBE cells, in the presence of a co-corrector; format: cell-based; settings: HRP-tagged ΔF508-CFTR CFBE cells, in the presence of 3 μM co-corrector; for EC50: read-out: EC50
T1 construct: host or cells: CFBE41o-, doxycycline-inducible
T1 sequence (P13569 with tags, fused parts or gaps DEL508-508): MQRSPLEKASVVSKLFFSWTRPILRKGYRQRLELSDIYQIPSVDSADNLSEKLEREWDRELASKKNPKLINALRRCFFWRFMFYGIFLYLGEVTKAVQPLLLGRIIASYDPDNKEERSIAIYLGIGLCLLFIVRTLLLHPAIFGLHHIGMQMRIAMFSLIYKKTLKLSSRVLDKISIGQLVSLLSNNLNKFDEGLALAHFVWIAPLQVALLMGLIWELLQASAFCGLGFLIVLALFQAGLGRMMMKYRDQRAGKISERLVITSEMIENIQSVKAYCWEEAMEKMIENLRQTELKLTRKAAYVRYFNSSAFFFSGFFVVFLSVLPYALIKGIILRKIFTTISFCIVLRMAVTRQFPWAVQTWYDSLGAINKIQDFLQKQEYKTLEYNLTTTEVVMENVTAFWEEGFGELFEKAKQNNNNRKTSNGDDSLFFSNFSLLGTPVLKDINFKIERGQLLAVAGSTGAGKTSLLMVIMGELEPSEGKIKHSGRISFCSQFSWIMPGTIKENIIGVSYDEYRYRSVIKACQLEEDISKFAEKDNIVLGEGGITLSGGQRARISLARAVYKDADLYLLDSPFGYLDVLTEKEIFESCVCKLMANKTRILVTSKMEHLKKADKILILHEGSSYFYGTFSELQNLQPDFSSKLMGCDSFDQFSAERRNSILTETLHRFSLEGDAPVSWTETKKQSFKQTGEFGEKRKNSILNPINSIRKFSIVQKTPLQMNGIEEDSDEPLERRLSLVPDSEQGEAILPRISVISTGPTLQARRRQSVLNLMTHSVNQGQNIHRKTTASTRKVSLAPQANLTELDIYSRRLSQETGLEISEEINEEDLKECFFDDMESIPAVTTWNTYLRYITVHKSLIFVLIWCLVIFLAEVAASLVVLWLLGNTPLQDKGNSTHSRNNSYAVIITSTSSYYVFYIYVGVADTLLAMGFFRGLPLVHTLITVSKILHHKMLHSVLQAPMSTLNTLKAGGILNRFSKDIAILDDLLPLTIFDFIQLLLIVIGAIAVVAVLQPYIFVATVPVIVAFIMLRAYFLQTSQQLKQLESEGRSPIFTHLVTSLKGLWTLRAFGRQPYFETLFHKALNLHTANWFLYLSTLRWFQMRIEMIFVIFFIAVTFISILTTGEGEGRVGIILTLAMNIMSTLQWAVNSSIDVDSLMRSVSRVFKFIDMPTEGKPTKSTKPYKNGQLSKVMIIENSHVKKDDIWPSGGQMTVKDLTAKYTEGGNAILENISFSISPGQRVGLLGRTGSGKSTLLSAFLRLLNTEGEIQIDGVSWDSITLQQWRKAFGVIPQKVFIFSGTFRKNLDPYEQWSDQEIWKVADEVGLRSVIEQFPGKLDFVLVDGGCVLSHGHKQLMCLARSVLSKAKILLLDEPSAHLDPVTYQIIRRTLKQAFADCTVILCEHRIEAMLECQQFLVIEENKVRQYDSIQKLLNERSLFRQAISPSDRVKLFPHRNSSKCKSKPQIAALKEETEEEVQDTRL
In short: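 Chemiluminescent read-out of surface HRP (15 min, dark) after PBS washes. Activity is normalized as 100×(sample−DMSO)/(3 μM co-corrector alone−DMSO).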

ΔF508-CFTR [2] = molecular target: T1, ΔF508-CFTR; assay: CFTR cell surface levels using HRP-tagged ΔF508-CFTR expressing CFBE cells, intrinsic corrector capacity; format: cell-based; parameters: % Activation: concentration or dose not given beside the values; settings: HRP-tagged ΔF508-CFTR expressing CFBE41o- cells, compound alone (intrinsic corrector capacity), 20 hours at 33° C.; for EC50: read-out: EC50
In short: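 Read-out: chemiluminescent HRP activity of ECL4-HRP-tagged ΔF508-CFTR at the cell surface, 15 min substrate in dark. Normalized as 100×(sample−DMSO)/(positive control−DMSO).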

Row | SMILES | % Activation (ΔF508-CFTR [1]) | EC50 (ΔF508-CFTR [1]) | % Activation (ΔF508-CFTR [2]) | EC50 (ΔF508-CFTR [2])
1 | N#CC1CCN(S(=O)(=O)NC(=O)c2cc(N3CCC(N4CCOCC4)CC3)c3c(C4CCC4)nn(-c4ccc(F)cc4)c3n2)CC1 [Compound 505, N-(4-cyanopiperidine-1-sulfonyl)-3-cyclobutyl-1-(4-fluorophenyl)-4-[4-(morpholin-4-yl)piperidin-1-yl]-1H-pyrazolo[3,4-b]pyridine-6-carboxamide] | 389% | 54.1 nM | 187.5% | 92.6 nM
2 | O=C(NS(=O)(=O)C1COC1)c1cc(N2CCC(N3CCOCC3)CC2)c2c(C3CCC3)nn(-c3ccc(F)cc3)c2n1 [Compound 506, 3-cyclobutyl-1-(4-fluorophenyl)-4-[4-(morpholin-4-yl)piperidin-1-yl]-N-(oxetane-3-sulfonyl)-1H-pyrazolo[3,4-b]pyridine-6-carboxamide] | 308.95% | 941 nM | 144.1% | 3330 nM
3 | O=C(NS(=O)(=O)C1CC1)c1cc(N2CCC(N3CCOCC3)CC2)c2c(C3CCC3)nn(-c3ccc(F)cc3)c2n1 [Compound 507, 3-cyclobutyl-N-(cyclopropanesulfonyl)-1-(4-fluorophenyl)-4-[4-(morpholin-4-yl)piperidin-1-yl]-1H-pyrazolo[3,4-b]pyridine-6-carboxamide] | 580.4% | 95.4 nM | 309.4% | 137 nM
4 | CC1(S(=O)(=O)NC(=O)c2cc(N3CCC(N4CCOCC4)CC3)c3c(C4CCC4)nn(-c4ccc(F)cc4)c3n2)CC1 [Compound 508, 3-cyclobutyl-1-(4-fluorophenyl)-N-(1-methylcyclopropane-1-sulfonyl)-4-[4-(morpholin-4-yl)piperidin-1-yl]-1H-pyrazolo[3,4-b]pyridine-6-carboxamide] | 448.8% | 90.3 nM | 217.5% | 182 nM
5 | Cc1cccc(-n2nc(C3CCC3)c3c(N4CCC(N5CCOCC5)CC4)cc(C(=O)NS(C)(=O)=O)nc32)c1 [Compound 509, 3-cyclobutyl-N-(methanesulfonyl)-1-(3-methylphenyl)-4-[4-(morpholin-4-yl)piperidin-1-yl]-1H-pyrazolo[3,4-b]pyridine-6-carboxamide] | 527.9% | 118 nM | 333.2% | 327 nM
6 | CS(=O)(=O)NC(=O)c1cc(N2CCC(N3CCOCC3)CC2)c2c(C3CCC3)nn(-c3ccc(C(F)(F)F)cc3)c2n1 [Compound 510, 3-cyclobutyl-N-(methanesulfonyl)-4-[4-(morpholin-4-yl)piperidin-1-yl]-1-[4-(trifluoromethyl)phenyl]-1H-pyrazolo[3,4-b]pyridine-6-carboxamide] | 428.8% | 171 nM | 234.9% | 298 nM
7 | Cc1cc(-n2nc(C3CCC3)c3c(N4CCC(N5CCOCC5)CC4)cc(C(=O)NS(=O)(=O)N(C)C)nc32)ccc1F [Compound 511, 3-cyclobutyl-N-(dimethylsulfamoyl)-1-(4-fluoro-3-methylphenyl)-4-[4-(morpholin-4-yl)piperidin-1-yl]-1H-pyrazolo[3,4-b]pyridine-6-carboxamide] | 432.95% | 78.9 nM | 248.55% | 88.3 nM
8 | CN(C)S(=O)(=O)NC(=O)c1cc(N2CCC(N3CCOCC3)CC2)c2c(C3CCC3)nn(-c3cccc(F)c3)c2n1 [Compound 512, 3-cyclobutyl-N-(dimethylsulfamoyl)-1-(3-fluorophenyl)-4-[4-(morpholin-4-yl)piperidin-1-yl]-1H-pyrazolo[3,4-b]pyridine-6-carboxamide] | 415.25% | 65.3 nM | 222.27% | 121 nM
9 | CN(C)S(=O)(=O)NC(=O)c1cc(N2CCC(N3CCOCC3)CC2)c2c(C3CCC3)nn(-c3cccc(C(F)(F)F)c3)c2n1 [Compound 513, 3-cyclobutyl-N-(dimethylsulfamoyl)-4-[4-(morpholin-4-yl)piperidin-1-yl]-1-[3-(trifluoromethyl)phenyl]-1H-pyrazolo[3,4-b]pyridine-6-carboxamide] | 476.3% | 66.7 nM | 278.5% | 101 nM
10 | Cc1cc(-n2nc(C3CCC3)c3c(N4CCC(N5CCOCC5)CC4)cc(C(=O)NS(C)(=O)=O)nc32)ccc1F [Compound 514, 3-cyclobutyl-1-(4-fluoro-3-methylphenyl)-N-(methanesulfonyl)-4-[4-(morpholin-4-yl)piperidin-1-yl]-1H-pyrazolo[3,4-b]pyridine-6-carboxamide] | 540.3% | 97.1 nM | 301.4% | 150 nM
11 | CS(=O)(=O)NC(=O)c1cc(N2CCC(N3CCOCC3)CC2)c2c(C3CCC3)nn(-c3cccc(F)c3)c2n1 [Compound 515, 3-cyclobutyl-1-(3-fluorophenyl)-N-(methanesulfonyl)-4-[4-(morpholin-4-yl)piperidin-1-yl]-1H-pyrazolo[3,4-b]pyridine-6-carboxamide] | 479.2% | 52.9 nM | 287.1% | 179 nM
12 | CS(=O)(=O)NC(=O)c1cc(N2CCC(N3CCOCC3)CC2)c2c(C3CCC3)nn(-c3cccc(C(F)(F)F)c3)c2n1 [Compound 516, 3-cyclobutyl-N-(methanesulfonyl)-4-[4-(morpholin-4-yl)piperidin-1-yl]-1-[3-(trifluoromethyl)phenyl]-1H-pyrazolo[3,4-b]pyridine-6-carboxamide] | 545.3% | 56.6 nM | 322.7% | 120 nM
13 | CNS(=O)(=O)NC(=O)c1cc(N2CCC(N3CCOCC3)CC2)c2c(C3CCC3)nn(-c3ccc(F)cc3)c2n1 [Compound 517, 3-cyclobutyl-1-(4-fluorophenyl)-N-(methylsulfamoyl)-4-[4-(morpholin-4-yl)piperidin-1-yl]-1H-pyrazolo[3,4-b]pyridine-6-carboxamide] | 520.08% | 75.8 nM | 320.5% | 184 nM
14 | CN1CCN(Cc2cc(C(=O)NS(C)(=O)=O)nc3c2c(C2CCC2)nn3-c2ccc(F)cc2)CC1 [Compound 518, 3-cyclobutyl-1-(4-fluorophenyl)-N-(methanesulfonyl)-4-[(4-methylpiperazin-1-yl)methyl]-1H-pyrazolo[3,4-b]pyridine-6-carboxamide] | 189.55% | 3130 nM | 35.86% | 
15 | CS(=O)(=O)NC(=O)c1cc(CN2CCOCC2)c2c(C3CCC3)nn(-c3ccc(F)cc3)c2n1 [Compound 519, 3-cyclobutyl-1-(4-fluorophenyl)-N-(methanesulfonyl)-4-[(morpholin-4-yl)methyl]-1H-pyrazolo[3,4-b]pyridine-6-carboxamide] | 252.3% | 1020 nM | 114.4% | 3330 nM
16 | CN(C)S(=O)(=O)NC(=O)c1cc(CN2CCOCC2)c2c(C3CCC3)nn(-c3ccc(F)cc3)c2n1 [Compound 520, 3-cyclobutyl-N-(dimethylsulfamoyl)-1-(4-fluorophenyl)-4-[(morpholin-4-yl)methyl]-1H-pyrazolo[3,4-b]pyridine-6-carboxamide] | 207.1% | 924 nM | 60% | 1060 nM
17 | COCC1CCN(Cc2cc(C(=O)NS(=O)(=O)N(C)C)nc3c2c(C2CCC2)nn3-c2ccc(F)cc2)CC1 [Compound 521, 3-cyclobutyl-N-(dimethylsulfamoyl)-1-(4-fluorophenyl)-4-{[4-(methoxymethyl)piperidin-1-yl]methyl}-1H-pyrazolo[3,4-b]pyridine-6-carboxamide] | 217.3% | 712 nM | 31.93% | 
18 | COC1CCN(C2CCN(c3cc(C(=O)NS(=O)(=O)N(C)C)nc4c3c(C3CCC3)nn4-c3ccc(F)cc3)CC2)C1 (stereo not shown) [Compound 524, 3-cyclobutyl-N-(dimethylsulfamoyl)-1-(4-fluorophenyl)-4-[4-(3-methoxypyrrolidin-1-yl)piperidin-1-yl]-1H-pyrazolo[3,4-b]pyridine-6-carboxamide] | 398.75% | 308 nM | 209.35% | 525 nM
